In US8476248B2, “Process for the preparation of a water-soluble complex having resveratrol compounds; products comprising said complex; and uses thereof” (Uniao Brasileira de Educacao e Assistencia—Mantenedora da …, priority 2007, dated 2013) one finds Solubility, solubility and water solubility data, which are given here for one molecule.

The nature of series [1]: physchem. The series is classed as physicochemical. Here is the method:
Ten mg, 100 mg, 500 mg, 1000 mg and 2000 mg of β-CD/Res complex were put in 100 mL volumetric flasks and water was added until completing their volume. The solutions stayed at ultrasound for 60 minutes. Then samples were centrifuged and filtered in a 0.45 μm pore diameter cellulose acetate membrane. Twenty μL portions of the samples were diluted 2000 times and their absorbances were measured by a UV-VIS spectrophotometer (FIG. 2). It was noticed that system saturation happens from 1000 mg of β-CD/Res (FIG. 3). The concentration of trans-resveratrol in 1000 mg and 2000 mg β-CD/Res sample concentrations was determined by High-Performance Liquid Chromatography (HPLC). For quantification, an external calibration curve was used, with trans-resveratrol concentrations ranging from 0.10 a 200.0 mg.L^−1. HPLC was carried out in isocratic elution (flow of 1.0 mL min^−1), with an aqueous solution of 25% acetonitrile, pH 3.0, adjusted with H3PO4. The chromatograph was equipped with UV-VIS detector and a C18 column, 5 μm 250×4.6 mm. Sample portions were diluted 1000 times with eluent, and 20 μL were injected and detected in 306 nm. The concentrations of trans-resveratrol of the 1000 mg sample of β-CD/Res complex were 3010±62 mg.L^−1 and of the 2000 mg sample of βCD/Res complex were 2960.5±53 mg.L^−1. […] All analyses were carried out in quintuplicate.

For series [2] the following is noted: background statement; cited from earlier work.

≈ marks a conversion by molar mass, not a printed value.

`Oc1ccc(C=Cc2cc(O)cc(O)c2)cc1` [trans-resveratrol, 3,5,4′-trihydroxystilbene] yielded a Solubility in series [1] (60 min) of 27.5 µg/mL (≈ 120 µM). The solubility at 60 min in series [1] (water, thermodynamic from solid) was 27.5 ± 0.45 µg/mL (≈ 120 µM). Besides, in series [2], the water solubility result was “less than 0.03 g/L”.

As a reminder, the Solubility is how much of the substance goes into solution per volume. A word on the solubility: it is how much of the substance goes into solution per volume. Read a high solubility as much dissolved substance.
